31 compounds from patent US20230391778A1, “INDOLIN-2-ONE OR PYRROLO -PYRIDIN -2 -ONE DERIVATIVES” (Hoffmann-La Roche Inc., priority 2014, published 2023) can be followed below.

In this test the target is T1, mouse ENT-1 transporter (Mus musculus, UniProt Q9JIM1).
T1 construct: expressed in transfected cells
T1 sequence (Q9JIM1 1-460): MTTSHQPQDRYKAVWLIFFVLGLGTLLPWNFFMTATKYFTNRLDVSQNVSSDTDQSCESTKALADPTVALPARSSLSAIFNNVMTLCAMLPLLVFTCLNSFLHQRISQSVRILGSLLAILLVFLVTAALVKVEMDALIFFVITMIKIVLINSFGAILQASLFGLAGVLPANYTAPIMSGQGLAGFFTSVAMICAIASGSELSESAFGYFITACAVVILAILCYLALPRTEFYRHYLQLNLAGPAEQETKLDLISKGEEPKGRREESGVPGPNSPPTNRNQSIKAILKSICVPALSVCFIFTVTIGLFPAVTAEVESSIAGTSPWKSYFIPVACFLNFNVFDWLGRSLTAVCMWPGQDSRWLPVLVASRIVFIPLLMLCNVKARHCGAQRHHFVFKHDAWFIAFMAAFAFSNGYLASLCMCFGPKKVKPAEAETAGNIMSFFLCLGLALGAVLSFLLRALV
The test is described as follows: Measure of adenosine transport activity (ENT1 adenosine uptake inhibition). As to conditions: stable cells expressing mouse ENT-1, [2,8-3H]-adenosine 6 nM, 20 min. In kind it is cell-based. How it is done: To measure adenosine transport activity of ENT-1 mammalian cells, stable cells expressing the mouse ENT-1 transporter were plated on day 1 in 96-well culture plates at the density of 60,000 cells/well, in complete DMEM/F12 medium supplemented with glutamax, 10% FBS and 10 μg/ml puromycin. On day 2, the medium was aspirated and the cells were washed twice with uptake buffer (10 mM Hepes-Tris, pH 7.4 containing 150 mM NaCl, 1 mM CaCl2), 2.5 mM KCl, 2.5 mM MgSO4, 10 mM D-glucose) (UB). For inhibition experiments, cells were then incubated at RT with various concentrations of compounds with 1% DMSO final. Non-specific uptake was defined in the presence of 10 μM S-(4-Nitrobenzyl)-6-thioinosine (NBTI, Sigma Cat #N2255).
The plates were then incubated for 20 min with gentle shaking and the reaction was stopped by aspiration of the mixture and washing (three times) with ice-cold UB. The cells were lysed by the addition of scintillation liquid, shaken 3 hours and the radioactivity in the cells was estimated using a microplates scintillation counter (TopCount NXT, Packard).
For `Cc1ncc(-c2ccc3c(c2)N(c2cnc(CF)nc2)C(=O)C3(C)C)cn1` [Example 108, 1-(2-(fluoromethyl)pyrimidin-5-yl)-3,3-dimethyl-6-(2-methylpyrimidin-5-yl)indolin-2-one], the half-inhibitory concentration (IC50) was 1900 nM. In other words, the single-digit micromolar range.
As to `Cc1ncc(-c2ccc3c(c2)N(c2cnc(Cl)nc2)C(=O)C3(C)C)cn1` [Example 114, 1-(2-chloropyrimidin-5-yl)-3,3-dimethyl-6-(2-methylpyrimidin-5-yl)indolin-2-one], 456 nM corresponded to half-maximal inhibition (IC50).
Next, `Cc1ncc(-c2ccc3c(c2)N(c2cc(Cl)nc(Cl)c2)C(=O)C3(C)C)cn1` [Example 115, 1-(2,6-dichloropyridin-4-yl)-3,3-dimethyl-6-(2-methylpyrimidin-5-yl)indolin-2-one]: 144 nM; `Cc1ncc(-c2ccc3c(c2)N(c2cnc(Cl)cn2)C(=O)C3(C)C)cn1` [Example 117, 1-(5-chloropyrazin-2-yl)-3,3-dimethyl-6-(2-methylpyrimidin-5-yl)indol-2-one]: 35 nM.
Next, `Cc1cc(N2C(=O)C(C)(C)c3ccc(-c4cnc(C)nc4)cc32)cc(Cl)n1` [Example 119, 1-(2-chloro-6-methylpyridin-4-yl)-3,3-dimethyl-6-(2-methylpyrimidin-5-yl)indolin-2-one]: 335 nM; `Cc1ncc(-c2ccc3c(c2)N(c2cc(Cl)nc(C)n2)C(=O)C3(C)C)cn1` [Example 121, 1-(6-chloro-2-methylpyrimidin-4-yl)-3,3-dimethyl-6-(2-methylpyrimidin-5-yl)indolin-2-one]: 669 nM.
Compound `Cc1cnnc(N2C(=O)C(C)(C)c3ccc(-c4cnc(C)nc4)cc32)c1` [Example 122, 3,3-dimethyl-1-(5-methylpyridazin-3-yl)-6-(2-methylpyrimidin-5-yl)indolin-2-one] showed a 50% inhibitory concentration (IC50) of 626 nM. This IC50 and that of the compound before are within 1.5-fold of each other.
With `Cc1ncc(-c2ccc3c(c2)N(c2nc(C)ns2)C(=O)C3(C)C)cn1` [Example 123, 3,3-dimethyl-1-(3-methyl-1,2,4-thiadiazol-5-yl)-6-(2-methylpyrimidin-5-yl)indolin-2-one], half-maximal inhibition (IC50) was put at 694 nM. The IC50 values of the last two compounds are within 1.5-fold of each other.
`Cc1ncc(-c2ccc3c(c2)N(c2nccc(Cl)n2)C(=O)C3(C)C)cn1` [Example 128, 1-(4-chloropyrimidin-2-yl)-3,3-dimethyl-6-(2-methylpyrimidin-5-yl)indolin-2-one] gave an IC50 of 851 nM.
`COCc1ccc(N2C(=O)C(C)(C)c3ccc(-c4cnc(C)nc4)cc32)cn1` [Example 129, 1-(6-(methoxymethyl)pyridin-3-yl)-3,3-dimethyl-6-(2-methylpyrimidin-5-yl)indolin-2-one] returned an IC50 of 887 nM.
To `Cc1ncc(-c2ccc3c(c2)N(c2cc(C4CC4)cnn2)C(=O)C3(C)C)cn1` [Example 130, 1-(5-cyclopropylpyridazin-3-yl)-3,3-dimethyl-6-(2-methylpyrimidin-5-yl)indolin-2-one] belongs 2370 nM; to `Cc1cnc(-c2ccc3c(c2)N(c2cncc(C)n2)C(=O)C3(C)C)cn1` [Example 132, 3,3-dimethyl-6-(5-methylpyrazin-2-yl)-1-(6-methylpyrazin-2-yl)indolin-2-one], 2450 nM.
In turn, `Cc1cnc(-c2ccc3c(c2)N(c2cnc(C)nc2)C(=O)C3(C)C)cn1` [Example 133, 3,3-dimethyl-6-(5-methylpyrazin-2-yl)-1-(2-methylpyrimidin-5-yl)indolin-2-one] had an IC50 of 4780 nM.
In turn, `Cc1ncc(-c2ccc3c(c2)N(c2ccc(C4CC4)nn2)C(=O)C3(C)C)cn1` [Example 134, 1-(6-cyclopropylpyridazin-3-yl)-3,3-dimethyl-6-(2-methylpyrimidin-5-yl)indolin-2-one] gave an IC50 of 36 nM.
Consider `Cc1cccc(-c2ccc3c(c2)N(c2cncc(C)n2)C(=O)C3(C)C)n1` [Example 135, 3,3-dimethyl-1-(6-methylpyrazin-2-yl)-6-(6-methyl-2-pyridyl)indolin-2-one], for which the half-inhibitory concentration (IC50) was found to be 2280 nM.
Compound `Cc1cnc(-c2ccc3c(c2)N(c2ccc(C)nn2)C(=O)C3(C)C)cn1` [Example 137, 3,3-dimethyl-6-(5-methylpyrazin-2-yl)-1-(6-methylpyridazin-3-yl)indolin-2-one] had an IC50 of 4070 nM.
In turn, `Cc1cnc(-c2ccc3c(c2)N(c2ccn(C)n2)C(=O)C3(C)C)cn1` [Example 138, 3,3-dimethyl-1-(1-methyl-1H-pyrazol-3-yl)-6-(5-methylpyrazin-2-yl)indolin-2-one] gave an IC50 of 5790 nM.
The compound `Cc1ncc(-c2ccc3c(c2)N(c2cncc(F)c2)C(=O)C3(C)C)cn1` [Example 142, 1-(5-fluoropyridin-3-yl)-3,3-dimethyl-6-(2-methylpyrimidin-5-yl)indolin-2-one] showed a half-maximal inhibitory concentration (IC50) of 765 nM.
Next, `Cc1ncc(-c2ccc3c(c2)N(c2cncc(C#N)c2)C(=O)C3(C)C)cn1` [Example 143, 5-(3,3-dimethyl-6-(2-methylpyrimidin-5-yl)-2-oxoindolin-1-yl)nicotinonitrile]: 70 nM; `Cc1cc(-c2ccc3c(c2)N(c2cncc(C)n2)C(=O)C3(C)C)ccn1` [Example 144, 3,3-dimethyl-1-(6-methylpyrazin-2-yl)-6-(2-methyl-4-pyridyl)indolin-2-one]: 3510 nM; `Cc1cncc(-c2ccc3c(c2)N(c2cncc(C)n2)C(=O)C3(C)C)c1` [Example 145, 3,3-dimethyl-1-(6-methylpyrazin-2-yl)-6-(5-methyl-3-pyridyl)indolin-2-one]: 337 nM.
To `Cc1cncc(N2C(=O)C(C)(C)c3ccc(-c4cncc(F)c4)cc32)n1` [Example 146, 6-(5-fluoro-3-pyridyl)-3,3-dimethyl-1-(6-methylpyrazin-2-yl)indolin-2-one] belongs 2130 nM; to `Cc1cnc(N2C(=O)C(C)(C)c3ccc(-c4ccnc(C)c4)cc32)cn1` [Example 147, 3,3-dimethyl-1-(5-methylpyrazin-2-yl)-6-(2-methyl-4-pyridyl)indolin-2-one], 9000 nM.
With `Cc1ccc(-c2ccc3c(c2)N(c2cnc(C)cn2)C(=O)C3(C)C)cn1` [Example 148, 3,3-dimethyl-1-(5-methylpyrazin-2-yl)-6-(6-methyl-3-pyridyl)indolin-2-one], the 50% inhibitory concentration (IC50) came out at 402 nM.
Next, `Cc1cncc(-c2ccc3c(c2)N(c2cnc(C)cn2)C(=O)C3(C)C)c1` [Example 149, 3,3-dimethyl-1-(5-methylpyrazin-2-yl)-6-(5-methyl-3-pyridyl)indolin-2-one]: 207 nM.
Consider `Cc1cnc(N2C(=O)C(C)(C)c3ccc(-c4cncc(F)c4)cc32)cn1` [Example 150, 6-(5-fluoro-3-pyridyl)-3,3-dimethyl-1-(5-methylpyrazin-2-yl)indolin-2-one], for which half-maximal inhibition (IC50) required 1480 nM.
As for `Cc1cnc(N2C(=O)C(C)(C)c3ccc(-c4cnc(C)c(F)c4)cc32)cn1` [Example 151, 6-(5-fluoro-6-methyl-3-pyridyl)-3,3-dimethyl-1-(5-methylpyrazin-2-yl)indolin-2-one], the 50% inhibitory concentration (IC50) was 37 nM. This IC50 is about 40-fold lower than that of the compound before.
Compound `Cc1ncc(-c2ccc3c(c2)N(c2cncc(C(F)(F)F)c2)C(=O)C3(C)C)cn1` [Example 152, 3,3-dimethyl-6-(2-methylpyrimidin-5-yl)-1-(5-(trifluoromethyl)pyridin-3-yl)indolin-2-one] registered an IC50 of 317 nM. Compared with the last compound, the IC50 is about 8.6-fold higher.
To `Cc1ncc(-c2ccc3c(c2)N(c2cncc(CO)c2)C(=O)C3(C)C)cn1` [Example 153, 1-(5-(hydroxymethyl)pyridin-3-yl)-3,3-dimethyl-6-(2-methylpyrimidin-5-yl)indolin-2-one] belongs 291 nM; to `Cc1cncc(N2C(=O)C(C)(C)c3ccc(-c4ccnc(C)n4)cc32)n1` [Example 154, 3,3-dimethyl-1-(6-methylpyrazin-2-yl)-6-(2-methylpyrimidin-4-yl)indolin-2-one], 4470 nM; to `CCc1cncc(N2C(=O)C(C)(C)c3ccc(-c4cnc(C)nc4)cc32)c1` [Example 156, 1-(5-ethylpyridin-3-yl)-3,3-dimethyl-6-(2-methylpyrimidin-5-yl)indolin-2-one], 300 nM.
